Data as given in the NIST ThermoML archive (doi:10.1021/je800463k).

Experiment: mn = molality of the nth substance listed, in mol/kg
Conditions: 101 kPa, Liquid; for electrical conductivity: Frequency=0.001 MHz, Alternating current cell with electrodes; for speed of sound: Frequency=2 MHz

O=[N+]([O-])[O-].O=[N+]([O-])[O-].[Mg+2] [magnesium nitrate] + CO
Conditions | electrical conductivity, 273.15 K [S/m] | electrical conductivity, 278.15 K [S/m] | electrical conductivity, 283.15 K [S/m] | electrical conductivity, 288.15 K [S/m] | speed of sound, 273.15 K [m/s] | speed of sound, 278.15 K [m/s] | speed of sound, 283.15 K [m/s] | viscosity, 273.15 K [mPa·s] | viscosity, 278.15 K [mPa·s] | viscosity, 283.15 K [mPa·s]
m1 = 0.0082 | 0.1095 | 0.1165 | 0.1221 | 0.1281 | 1187.6 | 1171.2 | 1158.5 | 0.8298 | 0.7627 | 0.7006
m1 = 0.0545 | 0.3036 | 0.321 | 0.3368 | 0.3616 | 1194.3 | 1178.6 | 1163.6 | 0.8885 | 0.8108 | 0.7465
m1 = 0.0667 | 0.3337 | 0.3538 | 0.3738 | – | 1197.6 | 1181.3 | 1164.3 | 0.9109 | 0.836 | 0.775
m1 = 0.1047 | 0.4393 | 0.4655 | 0.4908 | – | 1202.4 | 1185.8 | 1168.9 | 0.9548 | 0.8755 | 0.8049
m1 = 0.2776 | 0.8097 | 0.8637 | 0.9168 | – | 1220.4 | 1203 | 1187.4 | 1.129 | 1.029 | 0.9437
m1 = 0.4024 | 1.002 | 1.073 | 1.143 | – | 1228.8 | 1214.1 | 1198.4 | 1.336 | 1.213 | 1.109
m1 = 0.4555 | 1.043 | 1.117 | 1.192 | – | 1237 | 1222.1 | 1204.7 | 1.4 | 1.273 | 1.158
m1 = 0.6276 | 1.207 | 1.3 | 1.394 | – | 1253.3 | 1235.6 | 1219.1 | 1.836 | 1.732 | 1.562
m1 = 0.782 | 1.31 | 1.417 | 1.528 | – | 1270.9 | 1254.4 | 1238.3 | 2.128 | 1.905 | 1.719
m1 = 0.881 | 1.334 | 1.447 | 1.561 | – | 1274.9 | 1257.8 | 1241 | 2.18 | 1.938 | 1.743
m1 = 0.9116 | 1.344 | 1.459 | 1.573 | – | 1279.9 | 1263.2 | 1247.8 | 2.329 | 2.079 | 1.866
m1 = 1.004 | 1.372 | 1.494 | 1.618 | – | 1293.4 | 1277.2 | 1261.1 | 2.559 | 2.278 | 2.041
m1 = 1.259 | 1.361 | 1.494 | 1.632 | – | 1315.8 | 1298.8 | 1282.7 | 3.717 | 3.26 | 2.891
m1 = 1.492 | 1.314 | 1.453 | 1.597 | – | 1340.4 | 1324.8 | 1308.1 | 4.748 | 4.119 | 3.619
m1 = 1.71 | 1.281 | 1.436 | 1.59 | – | 1360.5 | 1343.7 | 1327.3 | 6.086 | 5.244 | 4.554
m1 = 1.875 | 1.238 | 1.383 | 1.538 | – | 1368.6 | 1352.5 | 1335.4 | 7.175 | 6.178 | 5.339
